Values of other authors as cited in US20110223150A1, “Neutraceutical-Based Topical Anxiolytic Agent and Method of Use” (priority 2009, published 2011).
Read-outs that look alike come from different tables or passages of the source.

Experiments:
[1] = tested on: spontaneously hypertensive rats (SHR); conditions: dose-dependent
[2] = tested on: rats; conditions: chronic administration of 50 mg/kg
[3] = tested on: rats
[4] = tested on: mice; conditions: i.p. in mice
[5] = tested on: alpha brain waves

| Molecule | blood pressure effect [1] | teratogenic effects [2] | LD50 ([3]; i.p. in rats) [mg/kg] | LD50 ([3]; rats, method of administration not given) [mg/kg] | LD50 [4] [mg/kg] | time until alpha waves were observed (occipital and parietal regions) ([5]; 50 or 200 mg of L-theanine) [min] | time to sense of relaxation after ingestion ([5]; after ingestion) [min] | time after which intensity of alpha waves was detectable ([5]; separate study, dose dependent, 200 mg significant over controls) [min] |
| --- | --- | --- | --- | --- | --- | --- | --- | --- |
| NC(=O)CC[C@H](N)C(=O)O [L-glutamine] | did not exhibit an anti-hypertensive effect | – | – | – | – | – | – | – |
| NCC(CC(=O)O)c1ccccc1 (stereo not drawn) [Phenibut, beta-phenyl-gamma-aminobutyric acid] | – | did not have teratogenic effects | 700 | 1000 | 900 | – | – | – |
| gamma-ethylamino-L-glutamic acid [L-theanine] | blood pressure lowering effect | – | – | – | – | ≤ 40 | 30 to 40 | 30 |
